From US20240425512A1, “NITROGEN-CONTAINING HETEROCYCLIC COMPOUND, PHARMACEUTICAL COMPOSITION THEREOF AND APPLICATION THEREOF” (280 Bio, Inc., priority 2023, published 2024)
pIC50: −log10 of the molar value. Where two headings read alike, the source gives them in different places.

Experiments:
Format in all cases: cell-based
[1] = tested on: LS513 colon cancer cell with KRAS G12D mutation; test: Proliferation inhibition on RAS cell lines measured by CTG, LS513; settings: LS513 cells, incubated for 6 days, CellTiter Glo
Text: (§1) NCI-H358 is a human non-small cell lung cancer cell line with KRAS G12C mutation; AGS is a gastric cancer cell line with KRAS G12D mutation; SW620 is a colon cancer cell with KRAS G12V mutation; NCI-H460 is a non-small cell lung cancer cell with KRAS Q61H mutation; MKN1 is a wild-type gastric cancer cell with KRAS-amplified; LS513 is a colon cancer cell with KRAS G12D mutation; LoVo is a colon cancer cell with KRAS G13D mutation; NCI-H441 is a lung cancer cell with KRAS G12V mutation, and Capan-2 is a pancreatic cancer cell with KRAS G12V mutation.
(§2) The proliferation inhibitory effect of the compounds on various mutations was evaluated by determining the proliferation inhibitory activity of the compounds on these cell lines.
(§3) The assay was conducted on either 384-well plates or 96-well plates. The procedures are as follows:
(§4) The cell suspensions were added to 384- or 96-well plates (384-well plate: 50 μL; 96-well plate: 100 μL) except for peripheral wells. The plates were placed in a carbon dioxide incubator overnight. NCI-H358, AGS, NCI-H460, MKN-1, LS513, LoVo, and NCI-H441 were placed in a 5%, 370 carbon dioxide incubator overnight, and SW620 was placed in a 0%, 370 carbon dioxide incubator overnight. The HPD300 micro-dosing instrument was used to add the corresponding concentration of compound to each well (9-10 concentration gradients of compound were obtained by 3-fold dilution). Cell plates were incubated in a carbon dioxide incubator for 5-6 days. NCI-H358, AGS, NCI-H460 and MKN-1 were incubated at 5%, 37° incubator and SW620 was incubated at 0%, 370 incubator. On the day of plate measurement, the 384- or 96-well plates were first equilibrated at room temperature for 10-30 min, then CellTiter Glo reagent (384-well plate: 25 μL; 96-well plate: 100 μL) was added to the 384- or 96-well plate, shaken for 10 min away from light, and incubated for 10 min. The plates were placed into Victor NIVO or ENVIDION reader plates, and XLFit was utilized to plot the pharmacodynamic inhibition curve and calculate the IC50 value. “IC50>10 μM” is denoted by “*”, “10 μM≥IC50≥1 μM” is denoted by “**”, and “1 μM≥IC50>100 nM” is denoted by “***”, “IC50<100 nM” is denoted by “****”

[2] = tested on: NCI-H441 lung cancer cell with KRAS G12V mutation; test: Proliferation inhibition on RAS cell lines measured by CTG, NCI-H441; settings: Homo sapiens, NCI-H441, 144 h, Table 2; NCI-H441 cells, incubated for 6 days, CellTiter Glo
Text: as §1, §2, §3, §4

GP2D cells = test: Proliferation inhibition on RAS cell lines measured by CTG, GP2D; settings: CellTiter Glo
Procedure: as §2, §3, §4

[3] = tested on: SW620 colon cancer cell with KRAS G12V mutation; test: Proliferation inhibition on RAS cell lines measured by CTG, SW620; settings: Homo sapiens, SW-620, 144 h; Table 2; SW620 cells, incubated for 6 days, CellTiter Glo; read-out: IC50 (SW620^c)
Text: as §1, §2, §3, §4

[4] = Homo sapiens, LS-513, 144 h, Table 2, read-out: IC50 (LS513^f)
[5] = Table 3, read-out: IC50 (LS513^k)
[6] = Table 3, incubated for 6 days, read-out: IC50 (GP2D^l)
[7] = Homo sapiens, LS-513, 144 h, Table 3, read-out: IC50 (LS513^k)
[8] = 144 h, Table 3, incubated for 6 days, read-out: IC50 (GP2D^l)
[9] = 144 h, Table 2, incubated for 6 days, read-out: IC50 (GP2D^j)

Row | SMILES | pIC50 [1, 4] | pIC50 [1, 7] | pIC50 (GP2D cells; [8]) | other results
1 | C#Cc1c(F)ccc2cc(O)cc(-c3ncc4c(N5CCCCCN5)nc(OCC56CCCN5CC(=C)C6)nc4c3F)c12 (stereo not drawn) [Compound 24] | > 7.00 |  |  | pIC50 [2]: 6.00 to 7.00
2 | C#Cc1c(F)ccc2cc(OC(=O)c3cc(F)c(F)c(F)c3)cc(-c3ncc4c(N5CCCCCN5)nc(OC[C@@]56CCCN5C[C@H](F)C6)nc4c3F)c12 [Compound 126] |  |  |  | pIC50 [1, 5]: > 7.00; pIC50 (GP2D cells; [6]): > 7.00
3 | C#Cc1c(F)ccc2cc(OC(=O)N3CCCCC3)cc(-c3ncc4c(N5CCCCCN5)nc(OC[C@@]56CCCN5C[C@H](F)C6)nc4c3F)c12 [Compound 99] |  | > 7.00 | > 7.00 | 
4 | C#Cc1c(F)ccc2cc(O)cc(-c3ncc4c(N5CCCCCN5)nc(OC[C@@]56CC[C@H](c7ccc(C(F)(F)F)c(F)c7)N5C[C@H](F)C6)nc4c3F)c12 [Compound 118] |  | 6.00 to 7.00 | 6.00 to 7.00 | 
5 | C#Cc1c(F)ccc2cc(O)cc(-c3c(Cl)cc4c(N5CCCCCN5)nc(OC[C@@]56CCCN5C[C@H](F)C6)nc4c3F)c12 [Compound 41] |  |  |  | pIC50 [3]: 5.00 to 6.00
6 | C#Cc1c(F)ccc2cc(OC(=O)COCCOCCOCCOC)cc(-c3ncc4c(N5CCCCCN5)nc(OC[C@@]56CCCN5C[C@H](F)C6)nc4c3F)c12 [Compound 102] |  |  |  | pIC50 [1, 5]: > 7.00; pIC50 (GP2D cells; [6]): > 7.00
7 | C#Cc1c(F)ccc2cc(O)cc(-c3ncc4c(N5CCCCCN5)nc(OCC56CCCN5CC(F)(F)C6)nc4c3F)c12 (stereo not drawn) [Compound 37] | > 7.00 |  |  | pIC50 [3]: > 7.00
8 | C#Cc1c(F)ccc2cc(OC(=O)NCCCCCCCC)cc(-c3ncc4c(N5CCCCCN5)nc(OC[C@@]56CCCN5C[C@H](F)C6)nc4c3F)c12 [Compound 69] | > 7.00 |  |  | pIC50 (GP2D cells; [9]): > 7.00
9 | C#Cc1c(F)ccc2cc(OC(=O)N(C)C[C@@H]3CCCN3)cc(-c3ncc4c(N5CCCCCN5)nc(OC[C@@]56CCCN5C[C@H](F)C6)nc4c3F)c12 [Compound 151] |  | > 7.00 | > 7.00 | 
10 | C#Cc1c(F)ccc2cc(O)cc(-c3ncc4c(N5CCCCCN5)nc(OCC56COC(C5)C6)nc4c3F)c12 [Compound 137] |  | 6.00 to 7.00 | 6.00 to 7.00 | 
11 | C#Cc1c(F)ccc2cc(O)cc(-c3ncc4c(N5CCCCCN5)nc(OC[C@@]56CC[C@H](c7cc(F)c(F)c(F)c7)N5C[C@H](F)C6)nc4c3F)c12 [Compound 103] |  |  |  | pIC50 [1, 5]: > 7.00; pIC50 (GP2D cells; [6]): > 7.00
12 | C#Cc1c(F)ccc2cc(O)cc(-c3ncc4c(N5CCCCCN5C(=O)C(F)(F)F)nc(OC[C@@]56CCCN5C[C@H](F)C6)nc4c3F)c12 [Compound 68] | > 7.00 |  |  | pIC50 (GP2D cells; [9]): > 7.00
13 | C#Cc1c(F)ccc2cc(O)cc(-c3ncc4c(N5CCCCCN5)nc(OCC5(CN6CCC(=CF)CC6)CC5)nc4c3F)c12 [Compound 106] |  | > 7.00 | > 7.00 | 
14 | C#Cc1c(F)ccc2cc(O)cc(-c3c(F)cc4c(N5CCCCCN5)nc(OC[C@@]56CCCN5C[C@H](F)C6)nc4c3F)c12 [Compound 49] | > 7.00 |  |  | pIC50 [3]: > 7.00
15 | C#Cc1c(F)ccc2cc(O)cc(-c3ncc4c(N5CCCCCCN5)nc(OC[C@@]56CCCN5C[C@H](F)C6)nc4c3F)c12 [Compound 15] | 6.00 to 7.00 |  |  | pIC50 [2]: 6.00 to 7.00
16 | C#Cc1c(F)ccc2cc(N)cc(-c3c(F)cc4c(N5CCCCCN5)nc(OC[C@@]56CCCN5C[C@H](F)C6)nc4c3F)c12 [Compound 131] |  |  |  | pIC50 [1, 5]: 6.00 to 7.00; pIC50 (GP2D cells; [6]): 6.00 to 7.00
17 | C#Cc1c(F)ccc2cc(O)cc(-c3ncc4c(N5CCCN5)nc(OC[C@@]56CCCN5C[C@H](F)C6)nc4c3F)c12 [Compound 18] | 5.00 to 6.00 |  |  | pIC50 [2]: 5.00 to 6.00
18 | C#Cc1c(F)ccc2cc(O)cc(-c3ncc4c(N5CCCC(O)CN5)nc(OC[C@@]56CCCN5C[C@H](F)C6)nc4c3F)c12 (stereo partly drawn) [Compound 38] |  |  |  | pIC50 [3]: 5.00 to 6.00
19 | CCc1c(F)ccc2cc(N)cc(-c3c(Cl)cc4c(N5CCCCCN5)nc(OC[C@@]56CCCN5C[C@H](F)C6)nc4c3F)c12 [Compound 134] |  | 6.00 to 7.00 | 5.00 to 6.00 | 
